Measurements: article PMC2824924 (Bioorganic & medicinal chemistry, 2009)

Columns and labels:
Vero cells = experiment: Cytotoxicity against Vero cells; format: cell-based, African monkey
Cryptococcus neoformans = experiment: Antimicrobial assay, antifungal; details: compared to control drug amphotericin B
[1] = tested on: National Cancer Institute's 60 cultured human tumor cell lines; experiment: NCI 60 human tumor cell line screen; details: mean graph midpoint; concentration of total growth inhibition
[2] = tested on: Plasmodium falciparum D6 clone (chloroquine-sensitive); experiment: In vitro antimalarial assay; format: cell-based; details: D6, 72 h, read-out: Plasmodium falciparum D6 clone IC50
[3] = tested on: Plasmodium falciparum W2 clone (chloroquine-resistant); experiment: In vitro antimalarial assay; format: cell-based; details: W2, 72 h, read-out: Plasmodium falciparum W2 clone IC50

Row | SMILES | Cytotoxicity Vero TC50 (Vero cells; African monkey, 48 h) | other results
1 | C[C@@H]1CC[C@H]2[C@@H](C)C(=O)O[C@@H]3O[C@@]4(C)CC[C@@H]1[C@]32OO4 [Compound 1, Artemisinin, reference compound] | > 1,686 nM | 
2 | C[C@H]1[C@@H](OCC(=O)CO)O[C@@H]2O[C@@]3(C)CC[C@H]4[C@H](C)CC[C@@H]1[C@@]24OO3 [Compound 15] | > 13,355 nM | 
3 | C[C@H]1[C@@H](OCC(=O)CO[C@H]2O[C@@H]3O[C@@]4(C)CC[C@H]5[C@H](C)CC[C@@H]([C@H]2C)[C@@]35OO4)O[C@@H]2O[C@@]3(C)CC[C@H]4[C@H](C)CC[C@@H]1[C@@]24OO3 [Compound 4] | 257 nM | 
4 | C[C@H]1[C@@H](OCC[C@@H](CO[C@H]2O[C@@H]3O[C@@]4(C)CC[C@H]5[C@H](C)CC[C@@H]([C@H]2C)[C@@]35OO4)O[C@H]2O[C@@H]3O[C@@]4(C)CC[C@H]5[C@H](C)CC[C@@H]([C@H]2C)[C@@]35OO4)O[C@@H]2O[C@@]3(C)CC[C@H]4[C@H](C)CC[C@@H]1[C@@]24OO3 [Compound 18] | 5,259 nM | 
5 | C[C@H]1[C@@H](OC[C@@H](O)[C@@H](O)CO[C@H]2O[C@@H]3O[C@@]4(C)CC[C@H]5[C@H](C)CC[C@@H]([C@H]2C)[C@@]35OO4)O[C@@H]2O[C@@]3(C)CC[C@H]4[C@H](C)CC[C@@H]1[C@@]24OO3 [Compound 11] | > 7,270 nM | 
6 | C[C@H]1[C@@H](Oc2cccc(N[C@@H]3[C@H](C)O[C@@H]4O[C@@]5(C)CC[C@H]6[C@H](C)CC[C@@H]3[C@@]46OO5)c2)O[C@@H]2O[C@@]3(C)CC[C@H]4[C@H](C)CC[C@@H]1[C@@]24OO3 [Compound 7] | > 7,417 nM | In vitro antifungal activity (in words) (Cryptococcus neoformans): enhanced activity compared to the control drug, amphotericin B
7 | C[C@H]1[C@@H](OC[C@@H]2O[C@@H]2CO[C@H]2O[C@@H]3O[C@@]4(C)CC[C@H]5[C@H](C)CC[C@@H]([C@H]2C)[C@@]35OO4)O[C@@H]2O[C@@]3(C)CC[C@H]4[C@H](C)CC[C@@H]1[C@@]24OO3 [Compound 13] | > 7,475 nM | 
8 | CC1=CO[C@@H]2O[C@]3(C)CC[C@H]4[C@H](C)CC[C@@H]1[C@@]24OO3 [Compound 3, Anhydrodihydroartemisinin, reference compound] | > 1,787 nM | 
9 | C[C@H]1[C@@H](O)O[C@@H]2O[C@@]3(C)CC[C@H]4[C@H](C)CC[C@@H]1[C@@]24OO3 [Compound 2, Dihydroartemisinin, reference compound] | 1,407 nM | 
10 | C[C@H]1[C@@H](OCC(CO[C@H]2O[C@@H]3O[C@@]4(C)CC[C@H]5[C@H](C)CC[C@@H]([C@H]2C)[C@@]35OO4)OS(C)(=O)=O)O[C@@H]2O[C@@]3(C)CC[C@H]4[C@H](C)CC[C@@H]1[C@@]24OO3 (stereo partly shown) [Compound 14] | 6,403 nM | 
11 | C=C[C@@H](CO[C@H]1O[C@@H]2O[C@@]3(C)CC[C@H]4[C@H](C)CC[C@@H]([C@H]1C)[C@@]24OO3)O[C@H]1O[C@@H]2O[C@@]3(C)CC[C@H]4[C@H](C)CC[C@@H]([C@H]1C)[C@@]24OO3 [Compound 9] | 773 nM | 
12 | C[C@H]1[C@@H](OC/C=C\CO[C@H]2O[C@@H]3O[C@@]4(C)CC[C@H]5[C@H](C)CC[C@@H]([C@H]2C)[C@@]35OO4)O[C@@H]2O[C@@]3(C)CC[C@H]4[C@H](C)CC[C@@H]1[C@@]24OO3 [Compound 8] | 709 nM | 
13 | C[C@H]1[C@@H](OCc2cc(O)cc(O)c2)O[C@@H]2O[C@@]3(C)CC[C@H]4[C@H](C)CC[C@@H]1[C@@]24OO3 [Compound 16] | > 11,711 nM | 
14 | C[C@H]1[C@@H](OC/C=C\CO)O[C@@H]2O[C@@]3(C)CC[C@H]4[C@H](C)CC[C@@H]1[C@@]24OO3 [Compound 17] | > 13,430 nM | In vitro antifungal activity (in words) (Cryptococcus neoformans): enhanced activity compared to the control drug, amphotericin B
15 | C[C@H]1[C@@H](O[C@@H](CO[C@H]2O[C@@H]3O[C@@]4(C)CC[C@H]5[C@H](C)CC[C@@H]([C@H]2C)[C@@]35OO4)[C@H](O)CO)O[C@@H]2O[C@@]3(C)CC[C@H]4[C@H](C)CC[C@@H]1[C@@]24OO3 [Compound 12] | 825 nM | In vitro antifungal activity (in words) (Cryptococcus neoformans): enhanced activity compared to the control drug, amphotericin B
16 | C[C@H]1[C@@H](OCc2cc(O)cc(O[C@H]3O[C@@H]4O[C@@]5(C)CC[C@H]6[C@H](C)CC[C@@H]([C@H]3C)[C@@]46OO5)c2)O[C@@H]2O[C@@]3(C)CC[C@H]4[C@H](C)CC[C@@H]1[C@@]24OO3 [Compound 6] | > 7,075 nM | MG_MID TGI [1]: 2820 nM
17 | C[C@H]1[C@@H](OCC(O)CO[C@H]2O[C@@H]3O[C@@]4(C)CC[C@H]5[C@H](C)CC[C@@H]([C@H]2C)[C@@]35OO4)O[C@@H]2O[C@@]3(C)CC[C@H]4[C@H](C)CC[C@@H]1[C@@]24OO3 (stereo partly shown) [Compound 5] | 384 nM | 
18 | C[C@H]1[C@@H](OCC[C@H](O)CO[C@H]2O[C@@H]3O[C@@]4(C)CC[C@H]5[C@H](C)CC[C@@H]([C@H]2C)[C@@]35OO4)O[C@@H]2O[C@@]3(C)CC[C@H]4[C@H](C)CC[C@@H]1[C@@]24OO3 [Compound 10] | > 7,452 nM | 
19 | CCN(CC)CCCC(C)Nc1ccnc2cc(Cl)ccc12 (stereo not shown) [chloroquine] |  | IC50 [2]: 41.6 nM; IC50 [3]: 378 nM; Cytotoxicity Vero TC50 (Vero cells; Table 2, concentration toxic to 50% of the cells): > 14,881 nM
